Experimental data as given in US20230159532A1, “PARATHYROID HORMONE (PTH) RECEPTOR ANTAGONISTS AND USES THEREOF” (Crinetics Pharmaceuticals, Inc., priority 2021, published 2023).

Target: T1, human PTHR1 receptor (Homo sapiens, UniProt Q03431)
T1 construct: purchased Eurofins HTS030M
T1 sequence (Q03431 27-593): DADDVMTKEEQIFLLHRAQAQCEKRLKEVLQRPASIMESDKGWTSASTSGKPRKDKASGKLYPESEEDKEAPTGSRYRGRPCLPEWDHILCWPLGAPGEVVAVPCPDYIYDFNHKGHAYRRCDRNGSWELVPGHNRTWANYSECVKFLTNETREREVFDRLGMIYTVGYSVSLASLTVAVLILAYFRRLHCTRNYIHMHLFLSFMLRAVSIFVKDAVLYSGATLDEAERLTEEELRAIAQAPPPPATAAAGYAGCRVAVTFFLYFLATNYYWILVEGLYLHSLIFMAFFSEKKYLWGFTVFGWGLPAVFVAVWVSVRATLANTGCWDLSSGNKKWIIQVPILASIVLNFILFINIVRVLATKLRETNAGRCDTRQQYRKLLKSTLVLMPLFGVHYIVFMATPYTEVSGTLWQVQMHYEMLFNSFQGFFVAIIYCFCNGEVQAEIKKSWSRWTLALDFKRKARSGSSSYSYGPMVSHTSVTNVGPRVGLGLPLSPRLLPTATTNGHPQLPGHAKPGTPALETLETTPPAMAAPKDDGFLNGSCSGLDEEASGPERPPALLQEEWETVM
Experiment: Competitive antagonist binding assay for hPTH-R1 (radioactive competition binding, SPA beads)
Settings: human PTHR1 membranes, [125I]-[Nle8,18,Tyr34]-PTH(1-34) 0.2 nM, 90 minutes at room temperature; read-out: hPTHR1 Ki
Description: Competitive Antagonist Binding Assay Protocol for hPTH-R1 Antagonists:
The inhibition of binding to the human PTHR1 receptor was measured in a radioactive competition binding assay using the radiolabeled [^125I]-[NLE^8,18, TYR^34]-parathyroid hormone (1-34) ligand (PerkinElmer Cat# NEX244, custom synthesis) as the probe ligand for the receptor. Briefly, membranes from cells expressing the human PTHR1 (Eurofins Cat# HTS030M) were incubated with SPA beads (PerkinElmer Cat# RPNQ0001) in binding assay buffer [50 mM HEPES (Biopioneer Cat# C0113), 5 mM MgCl2 (Sigma Cat# M8266), 10 mM CaCl2 (Fisher Scientific Cat# BP510), 0.1% BSA (Fisher Scientific Cat# BP1600), 0.01% TritonX-100 (Bio-Rad Cat#161-0407), and protease inhibitors (Pierce Cat# A32963); pH 7.4]. Membranes bound to SPA bead were treated with various dilutions of compounds (final concentrations typically 0-10,000 nM), and 0.2 nM radiolabeled ligand in 96-well isoplates (PerkinElmer Cat#6005040) for 90 minutes at room temperature. The radioactive signal was detected using a MicroBetaTriLux 1450 LSC (PerkinElmer). All data manipulations to determine the Ki values were performed using GraphPad v8 (GraphPad, San Diego Calif.).

Structure (SMILES) | Ki [nM]
CCN1C(=O)N(c2c(F)cc(NCCNC)cc2F)c2cc(Cl)cc(C)c2-c2cc(Cl)cnc21 [1-36, 4,13-dichloro-10-(2,6-difluoro-4-{[2-(methylamino)ethyl]amino}phenyl)-8-ethyl-15-methyl-6,8,10-triazatricyclo[9.4.0.0^2,7]pentadeca-1(11),2(7),3,5,12,14-hexaen-9-one] | < 100
CCN1C(=O)N(c2c(F)cc(NCCNCCO)cc2F)c2cc(Cl)cc(Cl)c2-c2cc(F)cnc21 [1-37, 13,15-dichloro-10-[2,6-difluoro-4-({2-[(2-hydroxyethyl)amino]ethyl}amino)phenyl]-8-ethyl-4-fluoro-6,8,10-triazatricyclo[9.4.0.0^2,7]pentadeca-1(11),2(7),3,5,12,14-hexaen-9-one] | < 100
CCN1C(=O)N(c2c(F)cc(NCCNC)cc2F)c2cc(Cl)cc(Cl)c2-c2cc(F)cnc21 [1-38, 13,15-dichloro-10-(2,6-difluoro-4-{[2-(methylamino)ethyl]amino}phenyl)-8-ethyl-4-fluoro-6,8,10-triazatricyclo[9.4.0.0^2,7]pentadeca-1(11),2(7),3,5,12,14-hexaen-9-one] | < 100
CCN1C(=O)N(c2c(F)cc(NCC(=O)O)cc2F)c2cc(Cl)ccc2-c2cc(Cl)cnc21 [1-41, 2-[(4-{4,13-dichloro-8-ethyl-9-oxo-6,8,10-triazatricyclo[9.4.0.0^2,7]pentadeca-1(11),2(7),3,5,12,14-hexaen-10-yl}-3,5-difluorophenyl)amino]acetic acid] | > 10000
CCN1C(=O)N(c2c(F)cc(N3CC[C@@H](N)C3)cc2F)c2cc(Cl)ccc2-c2cc(Cl)cnc21 [1-42, 10-{4-[(3R)-3-aminopyrrolidin-1-yl]-2,6-difluorophenyl}-4,13-dichloro-8-ethyl-6,8,10-triazatricyclo[9.4.0.0^2,7]pentadeca-1(11),2(7),3,5,12,14-hexaen-9-one] | < 100
CCN1C(=O)N(c2c(F)cc(N3CC[C@H](N)C3)cc2F)c2cc(Cl)ccc2-c2cc(Cl)cnc21 [1-43, 10-{4-[(3S)-3-aminopyrrolidin-1-yl]-2,6-difluorophenyl}-4,13-dichloro-8-ethyl-6,8,10-triazatricyclo[9.4.0.0^2,7]pentadeca-1(11),2(7),3,5,12,14-hexaen-9-one] | < 100
CCN1C(=O)N(c2c(F)cc(N3CC(N)C3)cc2F)c2cc(Cl)ccc2-c2cc(Cl)cnc21 [1-44, 10-[4-(3-aminoazetidin-1-yl)-2,6-difluorophenyl]-4,13-dichloro-8-ethyl-6,8,10-triazatricyclo[9.4.0.0^2,7]pentadeca-1(11),2(7),3,5,12,14-hexaen-9-one] | < 100
CNCCNc1cc(F)c(N2C(=O)N(CC(F)(F)F)c3ncc(Cl)cc3-c3ccc(Cl)cc32)c(F)c1 [1-45, 4,13-dichloro-10-(2,6-difluoro-4-{[2-(methylamino)ethyl]amino}phenyl)-8-(2,2,2-trifluoroethyl)-6,8,10-triazatricyclo[9.4.0.0^2,7]pentadeca-1(11),2(7),3,5,12,14-hexaen-9-one] | < 100
CC(C)N1C(=O)N(c2c(F)cc(NCCNCCO)cc2F)c2cc(Cl)ccc2-c2cc(Cl)cnc21 [1-47, 4,13-dichloro-10-[2,6-difluoro-4-({2-[(2-hydroxyethyl)amino]ethyl}amino)phenyl]-8-(propan-2-yl)-6,8,10-triazatricyclo[9.4.0.0^2,7]pentadeca-1(11),2(7),3,5,12,14-hexaen-9-one] | < 100
O=C1N(CC(F)(F)F)c2ncc(Cl)cc2-c2ccc(Cl)cc2N1c1c(F)cc(NCCNCCO)cc1F [1-48, 4,13-dichloro-10-[2,6-difluoro-4-({2-[(2-hydroxyethyl)amino]ethyl}amino)phenyl]-8-(2,2,2-trifluoroethyl)-6,8,10-triazatricyclo[9.4.0.0^2,7]pentadeca-1(11),2(7),3,5,12,14-hexaen-9-one] | < 100
CCN1C(=O)N(c2c(F)cc(NCCC(=O)O)cc2F)c2cc(Cl)ccc2-c2cc(Cl)cnc21 [1-50, 3-[(4-{4,13-dichloro-8-ethyl-9-oxo-6,8,10-triazatricyclo[9.4.0.0^2,7]pentadeca-1(11),2(7),3,5,12,14-hexaen-10-yl}-3,5-difluorophenyl)amino]propanoic acid] | > 10000
CCN1C(=O)N(c2c(F)cc(NCCNCCO)cc2F)c2cc(Cl)cc(C)c2-c2cc(Cl)cnc21 [1-51, 4,13-dichloro-10-[2,6-difluoro-4-({2-[(2-hydroxyethyl)amino]ethyl}amino)phenyl]-8-ethyl-15-methyl-6,8,10-triazatricyclo[9.4.0.0^2,7]pentadeca-1(11),2(7),3,5,12,14-hexaen-9-one] | < 100
CCOC(=O)CCCNc1cc(F)c(N2C(=O)N(CC)c3ncc(Cl)cc3-c3ccc(Cl)cc32)c(F)c1 [1-53, ethyl 4-[(4-{4,13-dichloro-8-ethyl-9-oxo-6,8,10-triazatricyclo[9.4.0.0^2,7]pentadeca-1(11),2(7),3,5,12,14-hexaen-10-yl}-3,5-difluorophenyl)amino]butanoate] | 1000 to 10000
CCN1C(=O)N(c2c(F)cc(NCCNC)cc2F)c2cc(C#N)ccc2-c2cc(Cl)cnc21 [1-54, 4-chloro-10-(2,6-difluoro-4-{[2-(methylamino)ethyl]amino}phenyl)-8-ethyl-9-oxo-6,8,10-triazatricyclo[9.4.0.0^2,7]pentadeca-1(11),2(7),3,5,12,14-hexaene-13-carbonitrile] | < 100
CCN1C(=O)N(c2c(F)cc(NCCNCCO)cc2F)c2cc(C#N)ccc2-c2cc(Cl)cnc21 [1-55, 4-chloro-10-[2,6-difluoro-4-({2-[(2-hydroxyethyl)amino]ethyl}amino)phenyl]-8-ethyl-9-oxo-6,8,10-triazatricyclo[9.4.0.0^2,7]pentadeca-1(11),2(7),3,5,12,14-hexaene-13-carbonitrile] | < 100

More lines, now with the values ahead:

Ki [nM] | Structure (SMILES)
< 100 | CN1C(=O)N(c2c(F)cc(NCCNCCO)cc2F)c2cc(Cl)ccc2-c2cc(Cl)cnc21 [1-34, 4,13-dichloro-10-[2,6-difluoro-4-({2-[(2-hydroxyethyl)amino]ethyl}amino)phenyl]-8-methyl-6,8,10-triazatricyclo[9.4.0.0^2,7]pentadeca-1(11),2(7),3,5,12,14-hexaen-9-one]
< 100 | CN1C(=O)N(c2c(F)cc(NCCNC3CCOCC3)cc2F)c2cc(Cl)ccc2-c2cc(Cl)cnc21 [1-35, 4,13-dichloro-10-[2,6-difluoro-4-({2-[(oxan-4-yl)amino]ethyl}amino)phenyl]-8-methyl-6,8,10-triazatricyclo[9.4.0.0^2,7]pentadeca-1(11),2(7),3,5,12,14-hexaen-9-one]
< 100 | CNCCNc1cc(F)c(N2C(=O)N(C(C)C)c3ncc(Cl)cc3-c3ccc(Cl)cc32)c(F)c1 [1-39, 4,13-dichloro-10-(2,6-difluoro-4-{[2-(methylamino)ethyl]amino}phenyl)-8-(propan-2-yl)-6,8,10-triazatricyclo[9.4.0.0^2,7]pentadeca-1(11),2(7),3,5,12,14-hexaen-9-one]
< 100 | CCCN1C(=O)N(c2c(F)cc(NCCNC)cc2F)c2cc(Cl)ccc2-c2cc(Cl)cnc21 [1-40, 4,13-dichloro-10-(2,6-difluoro-4-{[2-(methylamino)ethyl]amino}phenyl)-8-propyl-6,8,10-triazatricyclo[9.4.0.0^2,7]pentadeca-1(11),2(7),3,5,12,14-hexaen-9-one]
< 100 | CNCCNc1cc(F)c(N2C(=O)N(CC3CC3)c3ncc(Cl)cc3-c3ccc(Cl)cc32)c(F)c1 [1-46, 4,13-dichloro-8-(cyclopropylmethyl)-10-(2,6-difluoro-4-{[2-(methylamino)ethyl]amino}phenyl)-6,8,10-triazatricyclo[9.4.0.0^2,7]pentadeca-1(11),2(7),3,5,12,14-hexaen-9-one]
< 100 | CCCN1C(=O)N(c2c(F)cc(NCCNCCO)cc2F)c2cc(Cl)ccc2-c2cc(Cl)cnc21 [1-49, 4,13-dichloro-10-[2,6-difluoro-4-({2-[(2-hydroxyethyl)amino]ethyl}amino)phenyl]-8-propyl-6,8,10-triazatricyclo[9.4.0.0^2,7]pentadeca-1(11),2(7),3,5,12,14-hexaen-9-one]
< 100 | O=C1N(CC2CC2)c2ncc(Cl)cc2-c2ccc(Cl)cc2N1c1c(F)cc(NCCNCCO)cc1F [1-52, 4,13-dichloro-8-(cyclopropylmethyl)-10-[2,6-difluoro-4-({2-[(2-hydroxyethyl)amino]ethyl}amino)phenyl]-6,8,10-triazatricyclo[9.4.0.0^2,7]pentadeca-1(11),2(7),3,5,12,14-hexaen-9-one]
